How the values were obtained:
[1] = tested on: TRZAWR (Wheat, Winter, cv Riband); experiment: Preemergence herbicidal evaluation; assay type: in vivo, Triticum aestivum; details: rated 4-5 weeks after treatment
Method in brief: (§1)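 Greenhouse preemergence test: seed-soil mix sown on ~1 inch soil; aqueous acetone spray at equivalent of ~0.0156–0.500 kg/ha; greenhouse-held and watered; scored 0–9 visually at 4–5 weeks.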

ZEAMX (Corn, Field) = experiment: Preemergence herbicidal evaluation; assay type: in vivo, Zea mays; details: rated 4-5 weeks after treatment
Method in brief: as §1

[2] = tested on: CHEAL (Lambsquarters, Common); experiment: Postemergence herbicidal evaluation; assay type: in vivo, Chenopodium album; details: postemergence
Method in brief: (§2)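 Scores (0–9) reflect plant stand, vigor, malformation, size, chlorosis and general appearance relative to control, read 4 to 5 weeks after treatment and averaged where tests were repeated. Application: about 0.0156–0.500 kg/ha sprayed at 40 psi onto two-week seedlings.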

CYPSE (Flatsedge) = experiment: Postemergence weed control under flooded paddy conditions; assay type: in vivo, Cyperus serotinus; details: postemergence weeds, rated 3 to 4 weeks after treatment
Method in brief: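 With weeds 3 to 5 cm tall and rice at the 1.5 to 2.5 leaf stage, containers were flooded and water held 1.5 to 3 cm above soil. Compounds in 50/50 v/v aqueous/acetone went into the flood water at about 0.0313 to 0.500 kg/ha a.i. Effects were visually rated 0–9 against controls after three to four weeks in the greenhouse.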

[3] = tested on: SAGPY (Arrowhead (Pygmaea)); experiment: Preemergence weed control under flooded paddy conditions; assay type: in vivo, Sagittaria pygmaea; details: rated 3-4 weeks after treatment
Method in brief: (§3)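 Herbicidal effect is scored visually on a 0-9 scale against an untreated control, three to four weeks after compounds are pipetted into the flood water (1.5 to 3 cm deep) over seeds planted in silt loam at 0.5 cm depth. Rates: about 0.0313 to 0.500 kg/ha.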

CASOB (Sicklepod) = experiment: Postemergence herbicidal evaluation; assay type: in vivo, Cassia obtusifolia; details: postemergence
Method in brief: as §2

MOOVA (Monochoria) = experiment: Preemergence weed control under flooded paddy conditions; assay type: in vivo, Monochoria vaginalis; details: rated 3-4 weeks after treatment
Method in brief: as §3

ORYSAT (Rice, Tebonnet) [4] = experiment: Preemergence herbicidal evaluation; assay type: in vivo, Oryza sativa, (L.) Tebonnet; details: rated 4-5 weeks after treatment
Method in brief: as §1

ECHCG (Barnyardgrass) = experiment: Postemergence herbicidal evaluation; assay type: in vivo, Echinochloa crus-galli; details: postemergence
Method in brief: as §2

GALAP (Galium) = experiment: Preemergence herbicidal evaluation; assay type: in vivo, Galium aparine; details: rated 4-5 weeks after treatment
Method in brief: as §1

CYPIR (Rice Flatsedge) = experiment: Preemergence weed control under flooded paddy conditions; assay type: in vivo, Cyperus iria; details: rated 3-4 weeks after treatment
Method in brief: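 Seeds or propagules sown in silt loam kept flooded 1.5-3 cm; compounds in 50/50 acetone/water pipetted into flood water at about 0.0313 to 0.500 kg/ha. Greenhouse; visual 0-9 rating versus untreated control 3-4 weeks after treatment.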

SETVI (Foxtail, Green) = experiment: Preemergence herbicidal evaluation; assay type: in vivo, Setaria viridis; details: rated 4-5 weeks after treatment
Method in brief: as §1

ORYSAT (Rice, Tebonnet) [5] = experiment: Postemergence herbicidal evaluation; assay type: in vivo, Oryza sativa, (L.) Tebonnet; details: postemergence
Method in brief: as §2

[6] = tested on: GLXMAW (Soybean, Williams); experiment: Preemergence herbicidal evaluation; assay type: in vivo, Glycine max, (L.) Merr. cv Williams; details: rated 4-5 weeks after treatment
Method in brief: as §1

C=CCN1C(=O)C(CC(=O)OC(C)C)SC1=Nc1cc(-n2c(=O)cc(C(F)(F)F)n(C)c2=O)c(F)cc1Cl (centres unmarked) [Compound 66, Isopropyl 3-allyl-2-{{2-chloro-5-[3,6-dihydro-3-methyl-2,6-dioxo-4-(trifluoromethyl)-1(2H)-pyrimidinyl]-4-fluorophenyl}imino}-4-oxo-5-thiazolidineacetate]
5.5: ORYSAT herbicidal rating (ORYSAT (Rice, Tebonnet) [5]; rate 0.0625 kg/ha) | ORYSAT herbicidal rating (ORYSAT (Rice, Tebonnet) [5]; rate 0.1250 kg/ha)
2.5: Preemergence herbicidal rating ZEAMX (ZEAMX (Corn, Field); rate 0.2500 kg/ha) | Preemergence herbicidal rating ORYSAT (ORYSAT (Rice, Tebonnet) [4]; rate 0.2500 kg/ha)
0.0: Preemergence herbicidal rating TRZAWR ([1]; rate 0.0156 kg/ha) | Preemergence herbicidal rating TRZAWR ([1]; rate 0.0313 kg/ha) | Preemergence herbicidal rating ZEAMX (ZEAMX (Corn, Field); rate 0.0313 kg/ha) | Herbicidal rating CYPSE (CYPSE (Flatsedge); Rate 0.0313 kg/ha) | Herbicidal rating CYPSE (CYPSE (Flatsedge); Rate 0.0625 kg/ha) | CASOB herbicidal rating (CASOB (Sicklepod); rate 0.0158 kg/ha) | CASOB herbicidal rating (CASOB (Sicklepod); rate 0.0313 kg/ha) | Preemergence herbicidal rating ORYSAT (ORYSAT (Rice, Tebonnet) [4]; rate 0.0156 kg/ha) | Preemergence herbicidal rating ORYSAT (ORYSAT (Rice, Tebonnet) [4]; rate 0.0313 kg/ha) | Preemergence herbicidal rating GALAP (GALAP (Galium); rate 0.0156 kg/ha) | Preemergence herbicidal rating GALAP (GALAP (Galium); rate 0.0313 kg/ha) | Preemergence herbicidal rating GALAP (GALAP (Galium); rate 0.0625 kg/ha) | Preemergence herbicidal rating SETVI (SETVI (Foxtail, Green); rate 0.0156 kg/ha) | Preemergence herbicidal rating GLXMAW ([6]; rate 0.0156 kg/ha) | Preemergence herbicidal rating GLXMAW ([6]; rate 0.0313 kg/ha)
8.0: Preemergence herbicidal rating ORYSAT (ORYSAT (Rice, Tebonnet) [4]; rate 0.5000 kg/ha) | Preemergence herbicidal rating GALAP (GALAP (Galium); rate 0.2500 kg/ha)
6.0: CASOB herbicidal rating (CASOB (Sicklepod); rate 0.1250 kg/ha) | CYPIR herbicidal effect rating (CYPIR (Rice Flatsedge); 0.0313 kg/ha) | CYPIR herbicidal effect rating (CYPIR (Rice Flatsedge); 0.0625 kg/ha) | Preemergence herbicidal rating SETVI (SETVI (Foxtail, Green); rate 0.1250 kg/ha)
4.0: Preemergence herbicidal rating TRZAWR ([1]; rate 0.5000 kg/ha) | Herbicidal rating CYPSE (CYPSE (Flatsedge); Rate 0.1250 kg/ha) | Herbicidal rating CYPSE (CYPSE (Flatsedge); Rate 0.2500 kg/ha) | SAGPY herbicidal effect rating ([3]; 0.0625 kg/ha) | SAGPY herbicidal effect rating ([3]; 0.1250 kg/ha) | SAGPY herbicidal effect rating ([3]; 0.2500 kg/ha)
9.0: CHEAL herbicidal rating ([2]; rate 0.0313 kg/ha) | CHEAL herbicidal rating ([2]; rate 0.0625 kg/ha) | CHEAL herbicidal rating ([2]; rate 0.1250 kg/ha) | MOOVA herbicidal effect rating (MOOVA (Monochoria); 0.0313 kg/ha) | MOOVA herbicidal effect rating (MOOVA (Monochoria); 0.0625 kg/ha) | MOOVA herbicidal effect rating (MOOVA (Monochoria); 0.1250 kg/ha) | MOOVA herbicidal effect rating (MOOVA (Monochoria); 0.2500 kg/ha) | ECHCG herbicidal rating (ECHCG (Barnyardgrass); rate 0.0313 kg/ha) | ECHCG herbicidal rating (ECHCG (Barnyardgrass); rate 0.0625 kg/ha) | ECHCG herbicidal rating (ECHCG (Barnyardgrass); rate 0.1250 kg/ha) | Preemergence herbicidal rating GALAP (GALAP (Galium); rate 0.5000 kg/ha) | Preemergence herbicidal rating SETVI (SETVI (Foxtail, Green); rate 0.5000 kg/ha) | Preemergence herbicidal rating GLXMAW ([6]; rate 0.5000 kg/ha)
0.5: Preemergence herbicidal rating TRZAWR ([1]; rate 0.0625 kg/ha) | Preemergence herbicidal rating TRZAWR ([1]; rate 0.1250 kg/ha) | Preemergence herbicidal rating ZEAMX (ZEAMX (Corn, Field); rate 0.0156 kg/ha) | Preemergence herbicidal rating ZEAMX (ZEAMX (Corn, Field); rate 0.0625 kg/ha) | Preemergence herbicidal rating ORYSAT (ORYSAT (Rice, Tebonnet) [4]; rate 0.0625 kg/ha) | Preemergence herbicidal rating ORYSAT (ORYSAT (Rice, Tebonnet) [4]; rate 0.1250 kg/ha) | Preemergence herbicidal rating SETVI (SETVI (Foxtail, Green); rate 0.0313 kg/ha) | Preemergence herbicidal rating SETVI (SETVI (Foxtail, Green); rate 0.0625 kg/ha) | Preemergence herbicidal rating GLXMAW ([6]; rate 0.0625 kg/ha) | Preemergence herbicidal rating GLXMAW ([6]; rate 0.1250 kg/ha)
1.0: Preemergence herbicidal rating TRZAWR ([1]; rate 0.2500 kg/ha) | Preemergence herbicidal rating ZEAMX (ZEAMX (Corn, Field); rate 0.1250 kg/ha)
3.5: Preemergence herbicidal rating GALAP (GALAP (Galium); rate 0.1250 kg/ha) | ORYSAT herbicidal rating (ORYSAT (Rice, Tebonnet) [5]; rate 0.0158 kg/ha)
5.0: CHEAL herbicidal rating ([2]; rate 0.0158 kg/ha) | ORYSAT herbicidal rating (ORYSAT (Rice, Tebonnet) [5]; rate 0.0313 kg/ha)
7.0: Preemergence herbicidal rating ZEAMX (ZEAMX (Corn, Field); rate 0.5000 kg/ha) | CYPIR herbicidal effect rating (CYPIR (Rice Flatsedge); 0.1250 kg/ha) | CYPIR herbicidal effect rating (CYPIR (Rice Flatsedge); 0.2500 kg/ha)
2.0: ECHCG herbicidal rating (ECHCG (Barnyardgrass); rate 0.0158 kg/ha)
7.5: Preemergence herbicidal rating SETVI (SETVI (Foxtail, Green); rate 0.2500 kg/ha)
4.5: Preemergence herbicidal rating GLXMAW ([6]; rate 0.2500 kg/ha)
3.0: SAGPY herbicidal effect rating ([3]; 0.0313 kg/ha) | CASOB herbicidal rating (CASOB (Sicklepod); rate 0.0625 kg/ha)

— patent US20020137929A1, “1 - (3-heterocyclylphenyl) isothiourea, -isourea, -guanidine and -amidine herbicidal agents” (Intellectual Property Department, BASF Aktiengesellschaft, priority 1998, published 2002)
